Laboratory results as given in the SangsterLogP compilation.

Row | logP | Structure (SMILES)
1 | 4.6 | O=C1c2c(O)cccc2C(C(=O)/C=C/c2ccccc2)c2cccc(O)c21
2 | 3.96 | O=C1c2c(O)cccc2C(C(=O)Cc2ccc([N+](=O)[O-])cc2)c2cccc(O)c21
3 | 5.01 | O=C1c2c(O)cccc2C(C(=O)Cc2ccc(OCc3ccccc3)cc2)c2cccc(O)c21
4 | 4.96 | O=C1c2c(O)cccc2C(=Cc2ccc([N+](=O)[O-])cc2)c2cccc(O)c21
5 | 5.63 | O=C1c2c(O)cccc2C(C(=O)CCc2ccc(OCc3ccccc3)cc2)c2cccc(O)c21
6 | 5.48 | O=C1c2c(O)cccc2C(=Cc2ccc(C(F)(F)F)cc2)c2cccc(O)c21
7 | 6.11 | O=C1c2c(O)cccc2C(C(=O)Cc2cc(OCc3ccccc3)c(OCc3ccccc3)c(OCc3ccccc3)c2)c2cccc(O)c21
8 | 3.32 | O=C1c2c(O)cccc2C(=Cc2cc(O)c(O)c(O)c2)c2cccc(O)c21
9 | 5.43 | O=C1c2c(O)cccc2C(C(=O)Cc2ccc(OCc3ccccc3)c(OCc3ccccc3)c2)c2cccc(O)c21
10 | 5.67 | O=C1c2c(O)cccc2C(=CCCc2ccccc2)c2cccc(O)c21
11 | 4.24 | O=C1c2c(O)cccc2C(C(=O)Cc2ccccc2)c2cccc(O)c21
12 | 4.58 | N#Cc1ccc(C=C2c3cccc(O)c3C(=O)c3c(O)cccc32)cc1
13 | 4.63 | O=C1c2c(O)cccc2C(C(=O)CCc2ccccc2)c2cccc(O)c21
14 | 3.38 | O=C1c2c(O)cccc2C(C(=O)Cc2ccc(O)cc2)c2cccc(O)c21
15 | 4.21 | COc1ccc(CCC(=O)C2c3cccc(O)c3C(=O)c3c(O)cccc32)cc1OC
16 | 4.2 | COc1ccc(CC(=O)C2c3cccc(O)c3C(=O)c3c(O)cccc32)cc1
17 | 5.53 | COc1ccc(C=C2c3cccc(O)c3C(=O)c3c(O)cccc32)cc1
18 | 4.74 | O=C1c2c(O)cccc2C(C(=O)CCCc2ccccc2)c2cccc(O)c21
19 | 5.35 | COC(=O)c1ccc(C=C2c3cccc(O)c3C(=O)c3c(O)cccc32)cc1
20 | 3.73 | O=C1c2c(O)cccc2C(C(=O)CCc2ccc(O)cc2)c2cccc(O)c21
21 | 4.4 | O=C(O)c1ccc(C=C2c3cccc(O)c3C(=O)c3c(O)cccc32)cc1
22 | 5.83 | Cc1ccc(C=C2c3cccc(O)c3C(=O)c3c(O)cccc32)cc1
23 | 4.23 | O=C1c2c(O)cccc2C(C(=O)/C=C/c2ccc([N+](=O)[O-])cc2)c2cccc(O)c21
24 | 3 | O=C1c2c(O)cccc2C(C(=O)Cc2ccc(O)c(O)c2)c2cccc(O)c21
25 | 4.52 | O=C1c2c(O)cccc2C(=Cc2ccc(O)cc2)c2cccc(O)c21
26 | 4.72 | COc1ccc(CCC(=O)C2c3cccc(O)c3C(=O)c3c(O)cccc32)cc1
27 | 5.33 | CC(C)(C)c1cc(CC(=O)C2c3cccc(O)c3C(=O)c3c(O)cccc32)cc(C(C)(C)C)c1O
28 | 5.05 | COc1ccc(C=C2c3cccc(O)c3C(=O)c3c(O)cccc32)cc1OC
29 | 2.61 | O=C1c2c(O)cccc2C(C(=O)Cc2cc(O)c(O)c(O)c2)c2cccc(O)c21
30 | 4.68 | COc1cccc(C=CC(=O)C2c3cccc(O)c3C(=O)c3c(O)cccc32)c1
